Test results reported in patent US20130287705A1, “METHOD OF TREATING MUCOSAL INFLAMMATION” (MCMASTER UNIVERSITY, priority 2010, published 2013).

Legend:
DSS and DNBS colitis = settings: PCPA treated mice after induction of colitis; cited from earlier work
DSS-induced colitis = DSS-induced colitis in mice treated with 5-HT7 antagonist; format: in vivo, C57BL/6 mice
splenic dendritic cells = assay: Ex vivo culture of CD11c positive splenic DCs from bone-marrow reconstituted mice post-DSS; format: cell-based; settings: LPS and serotonin vs LPS only
Experimental: Mice were sacrificed by cervical dislocation and spleens were excised and placed in Spleen Dissociation Medium (STEMCELL Technologies) and incubated for 30 min at room temperature. They were then strained through a 70-μm nylon mesh filter (BD Falcon) and washed with PBS supplemented with 2% fetal bovine serum (FBS) and 1 mmol/L EDTA. Splenic DCs were isolated using a CD11c^+ isolation kit (EasySep®, STEMCELL Technologies) according to the manufacturer's guidelines.
DCs isolated using CD11c positive selection were incubated at 1×10^6 cells per mL for 24 hours at 37° C. with or without 100 ng/mL LPS (Sigma-Aldrich) in RPMI 1640 supplemented with 10% FBS, 100 U/mL penicillin, 100 μg/mL streptomycin, and 50 μM 2-mercaptoethanol (Invitrogen Life Technologies). Supernatents were collected after 24 hours and analyzed for cytokine levels using ELISA kits for murine IL-12p40, IL-1β, and IL-6 (Quantikine Murine; R&D Systems, Minneapolis, Minn., USA).
6-8 week old male recipient C57BL/6 mice (Taconic) were irradiated with two doses of 5.5 Gy 48 hours apart administered via a ^137Cs γ-irradiation source (Gamma Cell 40; Nordian, Kanata, ON, Canada). Bone marrow cells (no fewer than 5×10^4) were harvested from femurs and tibiae of donor mice (5-HT7^+/+) and 5-HT7^−/− and given via tail vein injection to recipient mice within two hours of the second irradiation exposure. […]

dendritic cells = dendritic cells from TPH1-/- mice in DSS-colitis, stimulation with 5-HT; cited from earlier work

NC(Cc1ccc(Cl)cc1)C(=O)O (racemic) [PCPA, para-chloro-D, L-phenylalanine]
onset of colitis (DSS and DNBS colitis): Delayed onset
pro-inflammatory cytokine production (DSS and DNBS colitis): down-regulation
severity of colitis (DSS and DNBS colitis): decreased severity

CC1CCN(CC[C@H]2CCCN2S(=O)(=O)c2cccc(O)c2)CC1.Cl [SB-269970, (2R)-1-[(3-Hydroxyphenyl)sulfonyl]-2-[2-(4-methyl-1-piperidinyl)ethyl]pyrrolidinehydrochloride]
colitis severity (macroscopic damage) (DSS-induced colitis; 40 mg/kg i.p., day 5 post-DSS induction, compared to controls): significantly lower
histological scores (DSS-induced colitis; 40 mg/kg i.p., day 5 post-DSS induction, compared to controls, FIG. 1C): significantly less severe
myeloperoxidase (MPO) activity in colonic tissue (DSS-induced colitis; 40 mg/kg i.p., post-DSS, FIG. 2A): significantly lower
production of IL-1β in colonic tissue (DSS-induced colitis; 40 mg/kg i.p., post-DSS, FIG. 2B): lower production
production of TNF-α in colonic tissue (DSS-induced colitis; 40 mg/kg i.p., post-DSS, FIG. 2C): lower production
production of IL-6 in colonic tissue (DSS-induced colitis; 40 mg/kg i.p., post-DSS, FIG. 2D): lower production
Clinical disease activity scores (fecal blood and consistency, and weight loss) (DSS-induced colitis; 40 mg/kg intraperitoneally, days 4 and 5 post-DSS administration, vs vehicle (saline), FIG. 1A): significantly lower

NCCc1c[nH]c2ccc(O)cc12 [serotonin, 5-hydroxytryptamine]
IL-1β production (splenic dendritic cells; DCs from mice reconstituted with wild-type BMC, FIG. 9): significantly up-regulated
increase in IL-1β production (splenic dendritic cells; DCs from spleens of transgenic mice (5-HT7-/- BMC)): not seen
IL-12 production (dendritic cells): restored
